O=[N+]([O-])O.c1ccc2c(CC3=NCCN3)cccc2c1
solubility (mole fraction) (in 2-methoxyethanol, 278.15 K): 0.0347
solubility (mole fraction) (in 2-methoxyethanol, 283.15 K): 0.04
solubility (mole fraction) (in 2-methoxyethanol, 288.15 K): 0.046
solubility (mole fraction) (in 2-methoxyethanol, 293.15 K): 0.0515
solubility (mole fraction) (in 2-methoxyethanol, 298.15 K): 0.0601
solubility (mole fraction) (in 2-methoxyethanol, 303.15 K): 0.0662
solubility (mole fraction) (in 2-methoxyethanol, 308.15 K): 0.0769
solubility (mole fraction) (in 2-methoxyethanol, 313.15 K): 0.0883
solubility (mole fraction) (in 2-methoxyethanol, 318.15 K): 0.101
solubility (mole fraction) (in 2-methoxyethanol, 323.15 K): 0.115
solubility (mole fraction) (in ethylene glycol, 278.15 K): 0.0168
solubility (mole fraction) (in ethylene glycol, 283.15 K): 0.0212
solubility (mole fraction) (in ethylene glycol, 288.15 K): 0.0257
solubility (mole fraction) (in ethylene glycol, 293.15 K): 0.03
solubility (mole fraction) (in ethylene glycol, 298.15 K): 0.0359
solubility (mole fraction) (in ethylene glycol, 303.15 K): 0.0428
solubility (mole fraction) (in ethylene glycol, 308.15 K): 0.0506
solubility (mole fraction) (in ethylene glycol, 313.15 K): 0.061
solubility (mole fraction) (in ethylene glycol, 318.15 K): 0.0704
solubility (mole fraction) (in ethylene glycol, 323.15 K): 0.0823
solubility (mole fraction) (in isopropanol, 278.15 K): 0.000577
solubility (mole fraction) (in isopropanol, 283.15 K): 0.000763
solubility (mole fraction) (in isopropanol, 288.15 K): 0.00101
solubility (mole fraction) (in isopropanol, 293.15 K): 0.00132
solubility (mole fraction) (in isopropanol, 298.15 K): 0.00161
solubility (mole fraction) (in isopropanol, 303.15 K): 0.00206
solubility (mole fraction) (in isopropanol, 308.15 K): 0.00258
solubility (mole fraction) (in isopropanol, 313.15 K): 0.00327
solubility (mole fraction) (in isopropanol, 318.15 K): 0.00389
solubility (mole fraction) (in isopropanol, 323.15 K): 0.00489
solubility (mole fraction) (in methanol, 278.15 K): 0.0104
solubility (mole fraction) (in methanol, 283.15 K): 0.013
solubility (mole fraction) (in methanol, 288.15 K): 0.0155
solubility (mole fraction) (in methanol, 293.15 K): 0.0193
solubility (mole fraction) (in methanol, 298.15 K): 0.0234
solubility (mole fraction) (in methanol, 303.15 K): 0.029
solubility (mole fraction) (in methanol, 308.15 K): 0.0368
solubility (mole fraction) (in methanol, 313.15 K): 0.0473
solubility (mole fraction) (in methanol, 318.15 K): 0.057
solubility (mole fraction) (in methanol, 323.15 K): 0.0705

From BigSolDB 2.1
